Reference: publication PMC9030254, “Target Hopping from Protein Kinases to PXR: Identification of Small-Molecule Protein Kinase Inhibitors as Selective Modulators of Pregnane X Receptor from TüKIC Library” (Cells, 2022)

What was measured:
Assay in all cases: Kinase profiling
Assay type in all cases: biochemical
CDK5/p25NCK = molecular target: T1, CDK5/p25NCK (Homo sapiens, UniProt Q00535)
T1 construct: purchased ProQinase (Freiburg, Germany)
Protocol: (§1) The analysis was performed by ProQinase (Freiburg, Germany).

CK1alpha1 = molecular target: T2, CK1alpha1 (Homo sapiens, UniProt P48729)
T2 construct: purchased ProQinase (Freiburg, Germany)
T2 sequence (P48729 whole entry): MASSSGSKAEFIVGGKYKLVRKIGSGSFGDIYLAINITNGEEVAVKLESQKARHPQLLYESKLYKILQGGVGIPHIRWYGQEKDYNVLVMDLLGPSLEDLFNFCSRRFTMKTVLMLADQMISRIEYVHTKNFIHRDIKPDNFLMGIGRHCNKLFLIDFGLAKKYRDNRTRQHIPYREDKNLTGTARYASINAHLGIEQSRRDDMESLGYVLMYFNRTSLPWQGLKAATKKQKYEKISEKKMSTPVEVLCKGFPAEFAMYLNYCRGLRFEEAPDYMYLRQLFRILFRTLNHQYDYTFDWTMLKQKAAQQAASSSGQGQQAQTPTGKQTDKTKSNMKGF
Protocol: as §1

EPHA4 = molecular target: T3, EPHA4 (Homo sapiens, UniProt P54764)
T3 construct: purchased ProQinase (Freiburg, Germany)
Protocol: as §1

FGFR1 = molecular target: T4, FGFR1 (Homo sapiens, UniProt P11362)
T4 construct: purchased ProQinase (Freiburg, Germany)
T4 sequence (P11362 22-822): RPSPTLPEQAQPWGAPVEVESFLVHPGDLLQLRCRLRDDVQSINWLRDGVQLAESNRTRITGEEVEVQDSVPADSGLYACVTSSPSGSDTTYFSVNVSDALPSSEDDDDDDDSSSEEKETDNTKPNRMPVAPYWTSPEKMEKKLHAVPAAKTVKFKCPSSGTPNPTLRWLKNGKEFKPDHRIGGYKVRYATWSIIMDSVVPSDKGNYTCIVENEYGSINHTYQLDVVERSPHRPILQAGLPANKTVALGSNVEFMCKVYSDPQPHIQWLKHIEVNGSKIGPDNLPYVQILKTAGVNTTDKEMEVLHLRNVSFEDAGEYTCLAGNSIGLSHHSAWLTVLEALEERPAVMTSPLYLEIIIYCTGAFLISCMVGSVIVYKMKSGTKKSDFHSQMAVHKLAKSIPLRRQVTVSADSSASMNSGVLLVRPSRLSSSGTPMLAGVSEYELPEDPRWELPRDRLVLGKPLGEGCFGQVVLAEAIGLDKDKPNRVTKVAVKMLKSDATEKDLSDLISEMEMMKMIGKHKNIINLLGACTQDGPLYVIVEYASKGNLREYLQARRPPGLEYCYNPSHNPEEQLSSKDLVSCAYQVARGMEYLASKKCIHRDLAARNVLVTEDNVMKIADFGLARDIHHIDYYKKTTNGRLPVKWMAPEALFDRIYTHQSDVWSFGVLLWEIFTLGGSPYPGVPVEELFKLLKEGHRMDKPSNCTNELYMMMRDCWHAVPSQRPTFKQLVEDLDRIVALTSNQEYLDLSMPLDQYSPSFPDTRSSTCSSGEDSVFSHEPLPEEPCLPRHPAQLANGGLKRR
Protocol: as §1

GSG2 = molecular target: T5, GSG2 (Homo sapiens, UniProt Q8TF76)
T5 construct: purchased ProQinase (Freiburg, Germany)
T5 sequence (Q8TF76 1-798): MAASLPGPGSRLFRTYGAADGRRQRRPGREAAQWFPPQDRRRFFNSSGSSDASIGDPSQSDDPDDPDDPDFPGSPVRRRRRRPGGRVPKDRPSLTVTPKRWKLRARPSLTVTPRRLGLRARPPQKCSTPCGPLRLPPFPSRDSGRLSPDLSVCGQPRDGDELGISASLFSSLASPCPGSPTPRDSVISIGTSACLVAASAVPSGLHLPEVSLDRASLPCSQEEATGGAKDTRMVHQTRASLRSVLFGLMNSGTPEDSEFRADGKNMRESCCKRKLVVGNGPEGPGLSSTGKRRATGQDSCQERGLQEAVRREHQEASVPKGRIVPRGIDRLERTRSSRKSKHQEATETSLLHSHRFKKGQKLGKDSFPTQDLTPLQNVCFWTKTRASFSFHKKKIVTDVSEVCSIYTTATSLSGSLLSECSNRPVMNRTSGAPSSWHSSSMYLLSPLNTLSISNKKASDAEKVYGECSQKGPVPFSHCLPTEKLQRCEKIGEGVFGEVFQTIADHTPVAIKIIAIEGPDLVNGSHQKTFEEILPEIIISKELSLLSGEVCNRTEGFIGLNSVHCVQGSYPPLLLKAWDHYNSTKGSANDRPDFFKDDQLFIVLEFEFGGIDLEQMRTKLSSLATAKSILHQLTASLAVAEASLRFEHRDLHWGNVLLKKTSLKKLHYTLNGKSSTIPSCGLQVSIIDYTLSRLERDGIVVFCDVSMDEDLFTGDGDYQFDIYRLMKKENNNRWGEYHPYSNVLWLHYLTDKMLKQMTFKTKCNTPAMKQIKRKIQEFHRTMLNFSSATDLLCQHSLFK
Protocol: as §1

GSK3beta = molecular target: T6, GSK3beta (Homo sapiens, UniProt P49841)
T6 construct: purchased ProQinase (Freiburg, Germany)
Protocol: as §1

JAK1 = molecular target: T7, JAK1 (Homo sapiens, UniProt P23458)
T7 construct: purchased ProQinase (Freiburg, Germany)
T7 sequence (P23458 whole entry): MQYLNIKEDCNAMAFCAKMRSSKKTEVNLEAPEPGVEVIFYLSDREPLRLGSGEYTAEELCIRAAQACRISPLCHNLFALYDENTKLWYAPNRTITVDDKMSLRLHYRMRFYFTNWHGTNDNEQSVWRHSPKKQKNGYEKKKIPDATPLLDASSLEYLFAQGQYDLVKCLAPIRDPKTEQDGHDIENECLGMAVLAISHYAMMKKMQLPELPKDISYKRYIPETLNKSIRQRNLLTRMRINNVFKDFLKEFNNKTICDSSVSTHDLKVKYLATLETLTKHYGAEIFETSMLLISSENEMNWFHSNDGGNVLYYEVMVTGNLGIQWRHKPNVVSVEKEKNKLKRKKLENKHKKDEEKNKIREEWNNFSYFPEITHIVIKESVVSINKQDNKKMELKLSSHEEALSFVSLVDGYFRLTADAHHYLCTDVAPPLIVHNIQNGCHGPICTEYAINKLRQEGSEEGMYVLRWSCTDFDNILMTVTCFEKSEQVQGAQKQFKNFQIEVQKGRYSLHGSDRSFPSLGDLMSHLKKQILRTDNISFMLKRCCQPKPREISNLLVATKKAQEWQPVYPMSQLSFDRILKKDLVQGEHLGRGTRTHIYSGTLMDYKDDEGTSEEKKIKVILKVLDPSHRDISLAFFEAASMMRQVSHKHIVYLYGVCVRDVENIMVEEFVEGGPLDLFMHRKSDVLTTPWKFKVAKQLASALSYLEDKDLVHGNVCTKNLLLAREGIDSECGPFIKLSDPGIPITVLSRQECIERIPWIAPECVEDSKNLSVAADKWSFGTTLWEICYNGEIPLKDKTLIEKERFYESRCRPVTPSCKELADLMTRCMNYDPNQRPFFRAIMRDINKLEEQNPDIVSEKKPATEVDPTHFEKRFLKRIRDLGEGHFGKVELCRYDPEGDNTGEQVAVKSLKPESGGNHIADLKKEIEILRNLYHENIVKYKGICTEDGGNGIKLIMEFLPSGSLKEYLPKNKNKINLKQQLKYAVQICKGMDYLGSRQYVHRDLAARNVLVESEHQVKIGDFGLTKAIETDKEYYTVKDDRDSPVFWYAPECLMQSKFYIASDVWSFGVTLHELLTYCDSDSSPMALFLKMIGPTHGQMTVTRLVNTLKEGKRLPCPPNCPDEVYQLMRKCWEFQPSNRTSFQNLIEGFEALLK
Protocol: as §1

LYN = molecular target: T8, LYN (Homo sapiens, UniProt P07948)
T8 construct: purchased ProQinase (Freiburg, Germany)
T8 sequence (P07948 whole entry): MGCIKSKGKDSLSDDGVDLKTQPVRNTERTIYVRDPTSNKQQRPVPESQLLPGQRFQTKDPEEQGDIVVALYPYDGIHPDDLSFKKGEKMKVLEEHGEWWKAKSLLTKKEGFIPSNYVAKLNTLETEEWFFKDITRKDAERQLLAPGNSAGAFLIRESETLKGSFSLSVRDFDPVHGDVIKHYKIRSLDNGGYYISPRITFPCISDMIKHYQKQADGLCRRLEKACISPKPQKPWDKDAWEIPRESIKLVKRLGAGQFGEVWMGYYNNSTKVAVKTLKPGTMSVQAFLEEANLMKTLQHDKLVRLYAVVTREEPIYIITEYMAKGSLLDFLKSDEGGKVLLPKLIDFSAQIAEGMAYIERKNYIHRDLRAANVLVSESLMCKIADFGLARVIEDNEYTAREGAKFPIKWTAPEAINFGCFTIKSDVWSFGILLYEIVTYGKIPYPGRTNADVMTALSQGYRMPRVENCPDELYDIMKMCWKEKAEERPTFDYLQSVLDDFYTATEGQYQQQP
Protocol: as §1

MKNK1 = molecular target: T9, MKNK1 (Homo sapiens, UniProt Q9BUB5)
T9 construct: purchased ProQinase (Freiburg, Germany)
T9 sequence (Q9BUB5 whole entry): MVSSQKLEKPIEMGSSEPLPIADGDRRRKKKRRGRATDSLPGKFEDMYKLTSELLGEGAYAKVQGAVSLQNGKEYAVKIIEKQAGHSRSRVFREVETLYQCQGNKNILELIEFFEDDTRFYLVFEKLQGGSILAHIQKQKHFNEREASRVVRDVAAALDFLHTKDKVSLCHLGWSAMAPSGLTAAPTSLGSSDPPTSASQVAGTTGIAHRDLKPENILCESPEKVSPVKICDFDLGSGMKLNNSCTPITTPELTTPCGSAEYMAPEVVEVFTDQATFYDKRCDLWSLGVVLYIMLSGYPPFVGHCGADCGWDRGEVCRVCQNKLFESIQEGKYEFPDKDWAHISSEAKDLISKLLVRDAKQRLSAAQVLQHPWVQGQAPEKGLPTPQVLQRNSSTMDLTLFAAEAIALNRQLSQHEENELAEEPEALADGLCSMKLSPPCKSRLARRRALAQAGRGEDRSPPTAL
Protocol: as §1

MST3 = molecular target: T10, MST3 (Homo sapiens, UniProt Q9Y6E0)
T10 construct: purchased ProQinase (Freiburg, Germany)
T10 sequence (Q9Y6E0 whole entry): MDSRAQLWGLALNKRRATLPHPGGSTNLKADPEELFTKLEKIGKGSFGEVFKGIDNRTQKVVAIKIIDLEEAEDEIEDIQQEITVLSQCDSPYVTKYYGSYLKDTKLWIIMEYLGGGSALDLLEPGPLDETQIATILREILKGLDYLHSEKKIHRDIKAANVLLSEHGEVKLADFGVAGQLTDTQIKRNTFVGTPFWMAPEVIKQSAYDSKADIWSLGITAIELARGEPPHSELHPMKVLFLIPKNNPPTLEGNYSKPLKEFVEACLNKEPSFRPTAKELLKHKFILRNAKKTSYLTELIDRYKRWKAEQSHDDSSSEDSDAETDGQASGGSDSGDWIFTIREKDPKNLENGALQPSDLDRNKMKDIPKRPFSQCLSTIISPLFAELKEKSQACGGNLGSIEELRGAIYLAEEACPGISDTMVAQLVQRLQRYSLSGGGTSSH
Protocol: as §1

NEK11 = molecular target: T11, NEK11 (Homo sapiens, UniProt Q8NG66)
T11 construct: purchased ProQinase (Freiburg, Germany)
T11 sequence (Q8NG66 1-645): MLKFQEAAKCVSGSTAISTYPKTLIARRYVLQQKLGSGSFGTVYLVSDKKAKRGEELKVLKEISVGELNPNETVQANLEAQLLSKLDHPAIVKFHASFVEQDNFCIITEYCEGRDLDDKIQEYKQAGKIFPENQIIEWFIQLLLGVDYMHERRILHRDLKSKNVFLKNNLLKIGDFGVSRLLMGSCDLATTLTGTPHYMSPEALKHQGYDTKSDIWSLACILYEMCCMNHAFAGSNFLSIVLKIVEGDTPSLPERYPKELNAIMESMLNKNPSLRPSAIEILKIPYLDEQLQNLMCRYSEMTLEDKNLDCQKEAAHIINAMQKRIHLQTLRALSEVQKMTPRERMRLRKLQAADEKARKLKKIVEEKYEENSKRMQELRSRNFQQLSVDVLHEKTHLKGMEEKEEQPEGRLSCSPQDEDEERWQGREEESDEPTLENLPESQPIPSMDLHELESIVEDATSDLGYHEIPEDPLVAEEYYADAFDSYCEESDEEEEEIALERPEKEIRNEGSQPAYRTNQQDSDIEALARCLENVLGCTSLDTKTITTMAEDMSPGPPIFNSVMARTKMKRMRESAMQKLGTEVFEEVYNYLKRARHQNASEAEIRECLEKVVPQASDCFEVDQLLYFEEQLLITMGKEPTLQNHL
Protocol: as §1

PKCbeta2 = molecular target: T12, PKCbeta2 (Homo sapiens, UniProt P05771)
T12 construct: purchased ProQinase (Freiburg, Germany)
T12 sequence (P05771 1-673 isoform P05771-2): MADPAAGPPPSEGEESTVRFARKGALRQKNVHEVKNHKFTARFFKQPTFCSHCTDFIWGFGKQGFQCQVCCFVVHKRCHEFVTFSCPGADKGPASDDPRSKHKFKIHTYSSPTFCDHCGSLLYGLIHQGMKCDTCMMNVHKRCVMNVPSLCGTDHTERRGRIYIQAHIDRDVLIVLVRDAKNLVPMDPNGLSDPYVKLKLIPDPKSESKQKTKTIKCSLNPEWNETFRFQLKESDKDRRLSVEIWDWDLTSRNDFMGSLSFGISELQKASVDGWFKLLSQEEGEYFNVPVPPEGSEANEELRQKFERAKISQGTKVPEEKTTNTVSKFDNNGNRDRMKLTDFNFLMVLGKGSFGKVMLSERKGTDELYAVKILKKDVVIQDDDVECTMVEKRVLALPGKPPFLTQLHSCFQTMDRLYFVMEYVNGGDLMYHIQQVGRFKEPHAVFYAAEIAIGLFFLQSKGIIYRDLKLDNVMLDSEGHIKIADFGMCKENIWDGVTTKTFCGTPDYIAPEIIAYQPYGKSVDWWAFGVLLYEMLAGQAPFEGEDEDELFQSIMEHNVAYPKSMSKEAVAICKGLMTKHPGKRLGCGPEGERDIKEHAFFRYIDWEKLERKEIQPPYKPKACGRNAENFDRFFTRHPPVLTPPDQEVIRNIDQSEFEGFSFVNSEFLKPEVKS
Protocol: as §1

ZAP70 = molecular target: T13, ZAP70 (Homo sapiens, UniProt P43403)
T13 construct: purchased ProQinase (Freiburg, Germany)
T13 sequence (P43403 1-619): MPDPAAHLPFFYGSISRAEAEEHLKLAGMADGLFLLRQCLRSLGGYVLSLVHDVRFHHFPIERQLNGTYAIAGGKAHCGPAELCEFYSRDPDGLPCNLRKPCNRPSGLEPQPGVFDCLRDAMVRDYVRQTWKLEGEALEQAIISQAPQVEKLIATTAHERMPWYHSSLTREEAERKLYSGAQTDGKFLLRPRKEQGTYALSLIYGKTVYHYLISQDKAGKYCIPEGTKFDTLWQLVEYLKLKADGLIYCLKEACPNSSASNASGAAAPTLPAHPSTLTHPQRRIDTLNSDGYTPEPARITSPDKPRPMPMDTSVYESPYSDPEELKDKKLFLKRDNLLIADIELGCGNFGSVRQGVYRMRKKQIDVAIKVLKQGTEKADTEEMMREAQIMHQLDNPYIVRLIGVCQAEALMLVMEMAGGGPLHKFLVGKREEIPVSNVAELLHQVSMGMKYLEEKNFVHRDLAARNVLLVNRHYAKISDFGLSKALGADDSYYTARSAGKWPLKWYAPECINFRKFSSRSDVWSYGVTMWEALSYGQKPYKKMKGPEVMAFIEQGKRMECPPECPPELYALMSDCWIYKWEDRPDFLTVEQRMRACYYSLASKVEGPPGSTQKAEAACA
Protocol: as §1

T1 sequence (Q00535 whole entry): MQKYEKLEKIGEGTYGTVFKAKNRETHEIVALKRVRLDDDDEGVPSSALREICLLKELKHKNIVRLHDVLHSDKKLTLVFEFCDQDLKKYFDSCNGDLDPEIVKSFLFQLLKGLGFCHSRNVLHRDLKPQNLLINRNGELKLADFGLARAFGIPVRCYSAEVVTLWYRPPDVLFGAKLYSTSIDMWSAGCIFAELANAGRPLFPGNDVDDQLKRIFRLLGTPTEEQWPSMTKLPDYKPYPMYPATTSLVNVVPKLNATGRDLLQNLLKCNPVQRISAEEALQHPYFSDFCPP
T1 sequence (Q15078 99-307 partner limits assumed): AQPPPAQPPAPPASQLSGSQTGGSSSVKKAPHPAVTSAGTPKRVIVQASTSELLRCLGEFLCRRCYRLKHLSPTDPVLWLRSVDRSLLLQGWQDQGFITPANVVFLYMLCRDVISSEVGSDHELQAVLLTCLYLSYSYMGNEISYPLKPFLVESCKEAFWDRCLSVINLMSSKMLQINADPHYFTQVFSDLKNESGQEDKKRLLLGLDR

SMILES: O=C(Nc1ccc(F)c(Nc2ccc3c(c2)CCCCC3=O)c1)c1cccc(F)c1 [Compound 109]
- Residual activity (CDK5/p25NCK; 1.0E-05 M): 95 % of control
- Residual activity (CDK5/p25NCK; 1.0E-06 M): 95 % of control
- Residual activity (CK1alpha1; 1.0E-05 M): 102 % of control
- Residual activity (CK1alpha1; 1.0E-06 M): 108 % of control
- Residual activity (EPHA4; 1.0E-05 M): 90 % of control
- Residual activity (EPHA4; 1.0E-06 M): 86 % of control
- Residual activity (FGFR1; 1.0E-05 M): 79 % of control
- Residual activity (FGFR1; 1.0E-06 M): 93 % of control
- Residual activity (GSG2; 1.0E-05 M): 68 % of control
- Residual activity (GSG2; 1.0E-06 M): 93 % of control
- Residual activity (GSK3beta; 1.0E-05 M): 90 % of control
- Residual activity (GSK3beta; 1.0E-06 M): 82 % of control
- Residual activity (JAK1; 1.0E-05 M): 88 % of control
- Residual activity (JAK1; 1.0E-06 M): 77 % of control
- Residual activity (LYN; 1.0E-05 M): 88 % of control
- Residual activity (LYN; 1.0E-06 M): 104 % of control
- Residual activity (MKNK1; 1.0E-05 M): 91 % of control
- Residual activity (MKNK1; 1.0E-06 M): 92 % of control
- Residual activity (MST3; 1.0E-05 M): 103 % of control
- Residual activity (MST3; 1.0E-06 M): 106 % of control
- Residual activity (NEK11; 1.0E-05 M): 104 % of control
- Residual activity (NEK11; 1.0E-06 M): 86 % of control
- Residual activity (PKCbeta2; 1.0E-05 M): 90 % of control
- Residual activity (PKCbeta2; 1.0E-06 M): 97 % of control
- Residual activity (ZAP70; 1.0E-05 M): 91 % of control
- Residual activity (ZAP70; 1.0E-06 M): 114 % of control

SMILES: O=C(Cc1ccccc1)Nc1ccc(F)c(Nc2ccc3c(c2)CCCCC3=O)c1 [Compound 100]
- Residual activity (CDK5/p25NCK; 1.0E-05 M): 90 % of control
- Residual activity (CDK5/p25NCK; 1.0E-06 M): 99 % of control
- Residual activity (CK1alpha1; 1.0E-05 M): 108 % of control
- Residual activity (CK1alpha1; 1.0E-06 M): 112 % of control
- Residual activity (EPHA4; 1.0E-05 M): 88 % of control
- Residual activity (EPHA4; 1.0E-06 M): 97 % of control
- Residual activity (FGFR1; 1.0E-05 M): 78 % of control
- Residual activity (FGFR1; 1.0E-06 M): 93 % of control
- Residual activity (GSG2; 1.0E-05 M): 78 % of control
- Residual activity (GSG2; 1.0E-06 M): 92 % of control
- Residual activity (GSK3beta; 1.0E-05 M): 88 % of control
- Residual activity (GSK3beta; 1.0E-06 M): 88 % of control
- Residual activity (JAK1; 1.0E-05 M): 85 % of control
- Residual activity (JAK1; 1.0E-06 M): 88 % of control
- Residual activity (LYN; 1.0E-05 M): 95 % of control
- Residual activity (LYN; 1.0E-06 M): 96 % of control
- Residual activity (MKNK1; 1.0E-05 M): 95 % of control
- Residual activity (MKNK1; 1.0E-06 M): 90 % of control
- Residual activity (MST3; 1.0E-05 M): 114 % of control
- Residual activity (MST3; 1.0E-06 M): 122 % of control
- Residual activity (NEK11; 1.0E-05 M): 110 % of control
- Residual activity (NEK11; 1.0E-06 M): 97 % of control
- Residual activity (PKCbeta2; 1.0E-05 M): 84 % of control
- Residual activity (PKCbeta2; 1.0E-06 M): 105 % of control
- Residual activity (ZAP70; 1.0E-05 M): 103 % of control
- Residual activity (ZAP70; 1.0E-06 M): 118 % of control
